{
  "source": "patent US5583198A",
  "about": "“Amino acids, peptides or derivatives thereof coupled to fats” (Commonwealth Scientific and Industrial Research Organization, priority 1989, dated 1996)",
  "key": {"[1]": {"molecular_target": "T1, papain (Carica papaya, UniProt P00784)", "T1 construct": "purchased Sigma", "T1 sequence (P00784 134-345)": "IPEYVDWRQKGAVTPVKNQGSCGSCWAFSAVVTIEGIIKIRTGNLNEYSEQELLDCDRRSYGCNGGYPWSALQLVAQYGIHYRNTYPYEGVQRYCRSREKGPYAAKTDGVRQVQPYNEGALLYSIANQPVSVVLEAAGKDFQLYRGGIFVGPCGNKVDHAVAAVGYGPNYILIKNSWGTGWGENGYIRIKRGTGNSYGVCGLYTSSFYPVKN", "assay": "Protease treatment with papain (hydrolysis followed by HPLC)", "type": "biochemical", "conditions": "phosphate buffer pH 6.5, enzyme/substrate 1:50, HPLC monitoring; main product Z-Ala-OH / Z-Gly-OH", "experimental": "(§1) Z-Gly-TRIS and Z-Ala-TRIS were incubated with papain, and Z-Leu-Arg-TRIS with trypsin, to test that the action of proteolytic enzymes could regenerate the starting compounds Z-Gly-OH, Z-Ala-OH and Z-Leu-Arg-OH respectively.\n50 ul of a suspension of papain (25 mg/ml, Sigma) was incubated with 20 mM aqueous solution of EDTA (50 ul); 1 Molar solution of mercaptoethanol (25 ul); 50 mM triethylamine (25 ul); and water (100 ul) at 37° C. for 30 min.\na) Papain. Z-Ala-TRIS in 50 mmolar phosphate buffer pH 6.5 (650 ul), 20 mM ethylene-diamise-tetra-acetic acid (100 ul) and water to 1 ml. Activated papain (5 mg/ml) was added to a final enzyme/substrate ratio of 1:50. The reaction was followed by HPLC on C18 reverse phase columns and the hydrolysis product identified by co-chromatography with standards. Blanks were incubated as above using water instead of enzyme solution."}, "[2]": {"tested_on": "U937 cells (human monocyte-like histiocytic lymphoma)", "assay": "3H-thymidine incorporation (mitogenic effect) in U937 cells", "type": "cell-based", "experimental": "(§2) ^3 H-thymidine incorporation experiments were carried out in Linbro-Titertek microtitre plates (Flow Laboratories, Inc., U.S.A.) following the method of L. Bradley in \"Selected Methods of Cellular Immunology (1980) Eds. B. B. Mishell and S. M. Shiigi; Publisher. W. H. Freeman and Co., U.S.A. pp156. The tests were carried out externally by Dr. D. Rathjen of Peptide Technology Ltd., Dee Why, N.S.W.\n2. U937; a human monocyte-like3 histiocytic lymphoma (source: American Tissue Culture Collection).\n(§3) RD10 cells (at a cell density 5×10^5 /ml, 100 ul/well) were cultured for 20 hours at 37° C. with 5% CO2 in RPMI 1640 medium, supplemented with 10% Fetal Calf. Serum. Samples to be tested were mixed and sonicated with this medium at a concentration of 5000, 500.50 and 5 ug/ml and 100 ul aliquots added to the cells. The cells were pulsed with 0.5 uCi/well of ^3 H-thymidine and the plates incubated for four more hours before harvesting (Titertek Skatron harvester, Lier, Norway). Incorporated radioactivity was measured by liquid scintillation counting. All assays were performed in triplicate."}, "[3]": {"tested_on": "RD10 cells (B-cell lymphoma)", "assay": "3H-thymidine incorporation (mitogenic effect) in RD10 cells", "type": "cell-based", "experimental": "as §2\n1. RD10; a B-cell lymphoma (obtained from the Centre for Immunology, Sydney University, Sydney, NSW.\nas §3"}, "[4]": {"tested_on": "RD10 cells (B-cell lymphoma)", "conditions": "under these conditions; cited from earlier work"}, "[5]": {"molecular_target": "T2, TPCK trypsin (Bos taurus, UniProt P00760)", "T2 sequence (P00760 24-246)": "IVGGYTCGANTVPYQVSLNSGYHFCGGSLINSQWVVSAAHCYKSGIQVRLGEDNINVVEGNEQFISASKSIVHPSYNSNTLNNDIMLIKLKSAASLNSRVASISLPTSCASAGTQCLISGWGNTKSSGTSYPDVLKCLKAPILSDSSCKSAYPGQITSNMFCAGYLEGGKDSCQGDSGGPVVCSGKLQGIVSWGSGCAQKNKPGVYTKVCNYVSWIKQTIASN", "assay": "Protease treatment with trypsin (hydrolysis followed by HPLC)", "type": "biochemical", "conditions": "0.2M ammonium hydrogen carbonate, 37° C., enzyme/substrate 1:50; product Z-Leu-Arg-OH", "experimental": "as §1\nb) Trypsin. Z-Leu-Arg-TRIS was incubated at a concentration between 2 and 10 mg/ml in 0.2M ammonium hydrogen carbonate. Freshly prepared TPCK trypsin (1 mg/ml in water) was added to the solution giving a final enzyme/substrate ratio of 1:50. Samples were incubated at 37° C. and aliquots examined by reverse phase HPLC. Additional amounts of enzyme were added as required."}},
  "data": [
    {"compound": "CC(NC(=O)OCc1ccccc1)C(=O)NC(CO)(CO)CO", "note": "(stereo not drawn) [Z-Ala-TRIS]", "values": [
      {"measurement": "enzymatic hydrolysis by papain", "setting": "[1]", "value": "hydrolysed by papain, albeit very slowly"}
    ]},
    {"compound": "CCCCCCCCCCCCCCCC(=O)OCC(COC(=O)CCCCCCCCCCCCCCC)(COC(=O)CCCCCCCCCCCCCCC)NC(=O)C(C)N", "note": "(stereo not drawn) [Ala-TRIS-Tripalmitate]", "values": [
      {"measurement": "Thymidine incorporation", "setting": "[2]", "value": "slightly diminished responses"},
      {"measurement": "3H-thymidine uptake response compared with Z-Ala-TRIS-Tripalmitate", "setting": "[3]", "value": "slightly diminished response"}
    ]},
    {"compound": "phytohaemagglutinin", "values": [
      {"measurement": "3H-thymidine uptake: increase in cell proliferation (known mitogen, for comparison)", "setting": "[4]", "value": "5-10 fold"}
    ]},
    {"compound": "CCCCCCCCCCCCCCCC(=O)OCC(COC(=O)CCCCCCCCCCCCCCC)(COC(=O)CCCCCCCCCCCCCCC)NC(=O)C(C)NC(=O)OCc1ccccc1", "note": "(stereo not drawn) [Z-Ala-TRIS-Tripalmitate, Z-Ala-TRIS-TRIPALMITATE]", "values": [
      {"measurement": "Thymidine incorporation", "setting": "[2]", "value": "close to control"},
      {"measurement": "cytotoxic effects", "setting": "[2]; at higher concentrations", "value": "slight cytotoxic effects"},
      {"measurement": "3H-thymidine uptake: increase in cell proliferation compared to control", "setting": "[3]; 20 hours culture, 4 hours pulse", "value": "3-4 fold"}
    ]},
    {"compound": "CC(C)C[C@H](NC(=O)OCc1ccccc1)C(=O)N[C@@H](CCCNC(=N)N)C(=O)NC(CO)(CO)CO", "note": "[Z-Leu-Arg-TRIS]", "values": [
      {"measurement": "enzymatic hydrolysis by trypsin", "setting": "[5]", "value": "hydrolyzed slowly"}
    ]},
    {"compound": "O=C(CNC(=O)OCc1ccccc1)NC(CO)(CO)CO", "note": "[Z-Gly-TRIS]", "values": [
      {"measurement": "enzymatic hydrolysis by papain", "setting": "[1]", "value": "hydrolysed by papain, albeit very slowly"}
    ]}
  ]
}
